According to patent US4442214A, “Thermo-stable micro-organism” (Development Finance Corporation of New Zealand, priority 1979, dated 1984):
Where two headings read alike, the source gives them in different places.

B1: THERMOLYSIN: thermophilic protease from BACILLUS THERMOPROTEOLYTICUS, published data (protein, UniProt P00800 233-548, looked up)
Thermolysin: ITGTSTVGVGRGVLGDQKNINTTYSTYYYLQDNTRGNGIFTYDAKYRTTLPGSLWADADNQFFASYDAPAVDAHYYAGVTYDYYKNVHNRLSYDGNNAAIRSSVHYSQGYNNAFWNGSQMVYGDGDGQTFIPLSGGIDVVAHELTHAVTDYTAGLIYQNESGAINEAISDIFGTLVEFYANKNPDWEIGEDVYTPGISGDSLRSMSDPAKYGDPDHYSKRYTGTQDNGGVHINSGIINKAAYLISQGGTHYGVSVVGIGRDKLGKIFYRALTQYLTPTSNFSQLRAAAVQSATDLYGSTSQEVASVKQAFDAVGVK

Key:
[1] = test system: NADH and succinate oxidases; experiment: Oxidase system activities (oxygen uptake) with inhibitors; type: biochemical; conditions: THERMUS T-351 oxidase systems
Procedure: Oxygen uptake was measured polarographically using a Rank electrode (Rank Brothers, Bottisham, Cambridge, England). The reaction mixture consisted of 0.1 M KH2 PO4 /Na2 HPO4 buffer pH 7.0, a suitable amount of membrane particle protein, 50 μmol of substrate (except in the case of NADH were 5 μmol were used), in a final volume of 2.5 ml.
Buffers were equilibrated at the desired temperature with sparged air for 30 minutes.
Particles were equilibrated in the electrode for 2 minutes prior to measurement of oxygen uptake. Rates were measured over the first minute.

CALDOLYSIN = experiment: Response of CALDOLYSIN to inhibitors; type: biochemical, THERMUS T-351
[2] = 80° C.; published data; cited from earlier work

| Molecule | relative effect on NADH oxidase and succinate oxidase [1] | also measured |
| --- | --- | --- |
| c1ccc(-c2ccnc3c2ccc2c(-c4ccccc4)ccnc23)cc1 [Bathophenanthroline] | more effective inhibitors of succinate oxidase |  |
| O=C(O)CI [Iodoacetic acid] |  | % Inhibitor of Activity (CALDOLYSIN): 60% |
| C=C(C)[C@H]1Cc2c(ccc3c2O[C@@H]2COc4cc(OC)c(OC)cc4[C@@H]2C3=O)O1 [Rotenone] | more effect on the NADH oxidase |  |
| CCC1(CCC(C)C)C(=O)NC(=O)NC1=O [amytal] | affected NADH and succinate oxidases equally |  |
| CCCCCCCc1cc(O)c2ccccc2[n+]1[O-] [2-heptyl-4-hydroxyquinoline-N-oxide] | more effective inhibitors of succinate oxidase |  |
| O=C(O)CN(CCOCCOCCN(CC(=O)O)CC(=O)O)CC(=O)O [EGTA] |  | % Inhibitor of Activity (CALDOLYSIN; inhibitor 1 mM): 18%; % Inhibitor of Activity (CALDOLYSIN; inhibitor 10 mM): 45% |
| O=S(=O)(F)Cc1ccccc1 [Phenylmethyl Sulfonyl Fluoride] |  | % Inhibitor of Activity (CALDOLYSIN; inhibitor 10 mM): 10% |
| antimycin A | more effective inhibitors of succinate oxidase |  |
| B1 |  | HALF-LIFE [2]: 1 h |
